In ChEMBL document CHEMBL5385867, “2-Phenoxy-3, 4'-bipyridine derivatives inhibit AURKB-dependent mitotic processes by disrupting its localization” (Eur J Med Chem, 2023):
Activity calls are given as the source filed them. No cut-off for these calls is given here.

Columns and labels:
[1] = target: Aurora kinase B (Homo sapiens) (UniProt Q96GD4); experiment: Disruption of AURKB localization in human RPE-MYC transfected with GFP-H2B assessed as minimal effective concentration that induces mitotic arrest, polyploidy, cell death and cell number reduction by MIPS assay; type: cell-based
Chain of Aurora kinase B (Homo sapiens) (Q96GD4 whole entry, the tested form may be a part): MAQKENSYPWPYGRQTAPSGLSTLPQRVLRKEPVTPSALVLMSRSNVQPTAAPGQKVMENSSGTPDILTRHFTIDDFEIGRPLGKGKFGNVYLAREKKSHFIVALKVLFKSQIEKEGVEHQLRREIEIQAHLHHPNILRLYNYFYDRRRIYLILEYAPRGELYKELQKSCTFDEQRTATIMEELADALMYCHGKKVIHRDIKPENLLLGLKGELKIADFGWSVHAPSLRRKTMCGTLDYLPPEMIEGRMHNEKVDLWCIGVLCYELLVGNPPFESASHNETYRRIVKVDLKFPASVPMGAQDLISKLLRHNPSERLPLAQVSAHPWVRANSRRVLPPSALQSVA

[2] = target: Aurora kinase B (Homo sapiens) (UniProt Q96GD4); experiment: Disruption of AURKB localization in human RPE-MYC cells transfected with BCL2 assessed as loss of localization of MKLP1 at the spindle-midzone by immunofluorescence staining based analysis; type: cell-based
[3] = target: Aurora kinase B (Homo sapiens) (UniProt Q96GD4); experiment: Disruption of AURKB localization in human RPE-MYC cells transfected with BCL2 assessed as loss of localization of microtubules at the spindle-midzone by immunofluorescence staining based analysis; type: cell-based
[4] = target: Aurora kinase B (Homo sapiens) (UniProt Q96GD4); experiment: Inhibition of Aurora kinase B in human RPE-MYC cells transfected with BCL2 assessed as inhibition of histone H3 phosphorylation at Ser10 residue at highest concentration measured after 6 hrs by immunofluorescence staining based analysis; type: cell-based
[5] = target: Aurora kinase B (Homo sapiens) (UniProt Q96GD4); experiment: Disruption of AURKB localization in human RPE-MYC cells transfected with BCL2 assessed as loss of localization of PLK1 at the spindle-midzone by immunofluorescence staining based analysis; type: cell-based
[6] = target: Aurora kinase B (Homo sapiens) (UniProt Q96GD4); experiment: Inhibition of Aurora kinase B in human RPE-MYC cells transfected with BCL2 assessed as inhibition of histone H3 phosphorylation at Ser10 residue at MEC for polyploidy measured after 6 hrs by immunofluorescence staining based analysis; type: cell-based
[7] = target: Aurora kinase B (Homo sapiens) (UniProt Q96GD4); experiment: Disruption of AURKB localization in human RPE-MYC cells transfected with BCL2 assessed as mislocalization of AURKB at the spindle zone in anaphase cells by immunofluorescence staining based analysis; type: cell-based
[8] = target: Epithelial discoidin domain-containing receptor 1 (Homo sapiens) (UniProt Q08345); experiment: Inhibition of DDR1 (unknown origin)
Chain of Epithelial discoidin domain-containing receptor 1 (Homo sapiens) (Q08345 whole entry, the tested form may be a part): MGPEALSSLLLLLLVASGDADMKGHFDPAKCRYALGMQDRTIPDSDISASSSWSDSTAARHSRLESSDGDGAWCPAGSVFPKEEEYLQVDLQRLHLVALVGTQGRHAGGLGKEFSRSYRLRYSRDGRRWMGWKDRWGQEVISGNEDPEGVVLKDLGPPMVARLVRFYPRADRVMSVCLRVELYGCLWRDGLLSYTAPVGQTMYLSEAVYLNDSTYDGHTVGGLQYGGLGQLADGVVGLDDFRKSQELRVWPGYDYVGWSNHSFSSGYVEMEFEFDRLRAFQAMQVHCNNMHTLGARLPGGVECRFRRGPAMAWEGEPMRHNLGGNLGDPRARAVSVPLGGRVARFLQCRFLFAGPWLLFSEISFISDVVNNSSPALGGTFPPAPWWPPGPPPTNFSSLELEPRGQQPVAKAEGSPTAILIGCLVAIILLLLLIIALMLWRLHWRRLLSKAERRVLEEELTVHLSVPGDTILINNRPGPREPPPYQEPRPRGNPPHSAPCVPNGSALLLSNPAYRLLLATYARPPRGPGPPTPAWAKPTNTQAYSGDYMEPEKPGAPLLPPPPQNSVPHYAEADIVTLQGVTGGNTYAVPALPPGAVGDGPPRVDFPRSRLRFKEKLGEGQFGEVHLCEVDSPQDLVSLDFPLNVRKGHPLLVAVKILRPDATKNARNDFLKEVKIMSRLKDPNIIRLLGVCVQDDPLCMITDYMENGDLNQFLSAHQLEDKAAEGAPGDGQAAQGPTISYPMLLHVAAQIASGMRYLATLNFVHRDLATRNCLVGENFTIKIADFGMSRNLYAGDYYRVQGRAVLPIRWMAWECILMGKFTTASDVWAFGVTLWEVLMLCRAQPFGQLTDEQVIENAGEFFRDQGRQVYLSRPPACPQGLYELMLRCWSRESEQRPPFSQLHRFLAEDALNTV

[9] = target: Aurora kinase B (Homo sapiens) (UniProt Q96GD4); experiment: Inhibition of Aurora kinase B in human RPE-MYC cells transfected with BCL2 assessed as inhibition of histone H3 phosphorylation at Ser10 residue at 200 nM measured after 6 hrs by immunofluorescence staining based analysis; type: cell-based
[10] = Cmax in BALB/c mouse at 50 mg/kg, po compound formulated in PEG300 and administered as single dose by LC-MS/MS analysis; type: ADME, organism-based; set-up: dose 50 mg/kg, route po; conditions: in vivo
[11] = Dose normalized AUC (0 to 6 hrs) in BALB/c mouse at 50 mg/kg, po compound formulated in PEG300 and administered as single dose by LC-MS/MS analysis; type: ADME, organism-based; conditions: in vivo
[12] = target: Aurora kinase B (Homo sapiens) (UniProt Q96GD4); experiment: Inhibition of Aurora kinase B in human RPE-MYC cells transfected with BCL2 assessed as inhibition of histone H3 phosphorylation at Ser10 residue at 2.5 nM measured after 6 hrs by immunofluorescence staining based analysis; type: cell-based
[13] = target: Aurora kinase B (Homo sapiens) (UniProt Q96GD4); experiment: Disruption of AURKB localization in human RPE-MYC cells transfected with BCL2 assessed as misaligned chromosomes in metaphase-like cells at 2.5 nM measured after 24 hrs by immunofluorescence staining based analysis; type: cell-based
[14] = target: Aurora kinase B (Homo sapiens) (UniProt Q96GD4); experiment: Disruption of AURKB localization in human RPE-MYC cells transfected with BCL2 assessed as lagging chromosomes in anaphase cells at 2.5 nM measured after 24 hrs by immunofluorescence staining based analysis; type: cell-based
[15] = target: T1, Aurora kinase A (Homo sapiens) (UniProt O14965); experiment: Inhibition of Aurora kinase A in human RPE-MYC cells transfected with BCL2 assessed as inhibition of protein autophosphorylation at Thr288 residue at 160 nM measured after 6 hrs by immunofluorescence staining based analysis; type: cell-based
T1 sequence (whole entry): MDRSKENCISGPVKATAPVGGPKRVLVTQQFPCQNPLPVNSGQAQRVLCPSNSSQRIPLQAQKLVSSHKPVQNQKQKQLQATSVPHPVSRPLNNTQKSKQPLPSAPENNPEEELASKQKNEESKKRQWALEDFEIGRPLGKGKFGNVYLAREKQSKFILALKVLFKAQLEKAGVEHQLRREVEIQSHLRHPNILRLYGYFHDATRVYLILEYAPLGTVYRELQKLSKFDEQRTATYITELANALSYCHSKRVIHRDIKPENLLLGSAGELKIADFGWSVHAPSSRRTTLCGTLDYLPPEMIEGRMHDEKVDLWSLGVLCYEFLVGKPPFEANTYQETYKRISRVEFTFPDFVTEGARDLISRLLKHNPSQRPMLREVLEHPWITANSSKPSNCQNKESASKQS

[16] = target: Aurora kinase B (Homo sapiens) (UniProt Q96GD4); experiment: Inhibition of Aurora kinase B in human NCI-H23 cells transfected with BCL2 assessed as inhibition of histone H3 phosphorylation at Ser10 residue at 2.5 nM measured after 6 hrs by immunofluorescence staining based analysis; type: cell-based
[17] = target: T1, Aurora kinase A (Homo sapiens); experiment: Inhibition of Aurora kinase A in human NCI-H23 cells transfected with BCL2 assessed as inhibition of protein autophosphorylation at Thr288 residue at 2.5 nM measured after 6 hrs by immunofluorescence staining based analysis; type: cell-based
[18] = Induction of mitotic arrest in human RPE-MYC cells transfected with BCL2 assessed as mitotic index at 2.5 nM measured after 24 hrs by DAPI staining based bright field microscopic analysis (reference value: 3.5%); type: functional
[19] = target: Aurora kinase B (Homo sapiens) (UniProt Q96GD4); experiment: Inhibition of Aurora kinase B in human RPE-MYC cells transfected with BCL2 assessed as inhibition of histone H3 phosphorylation at Ser10 residue at >5 nM measured after 6 hrs by immunofluorescence staining based analysis; type: cell-based
[20] = target: T1, Aurora kinase A (Homo sapiens); experiment: Inhibition of Aurora kinase A in human RPE-MYC cells transfected with BCL2 assessed as inhibition of protein autophosphorylation at Thr288 residue at 2.5 nM measured after 6 hrs by immunofluorescence staining based analysis; type: cell-based
[21] = target: Aurora kinase B (Homo sapiens) (UniProt Q96GD4); experiment: Disruption of AURKB localization in human RPE-MYC cells transfected with BCL2 assessed as accumulation of polyploid cells with multilobular nuclei at 2.5 nM measured after 48 hrs by immunofluorescence staining based analysis; type: cell-based
[22] = target: Aurora kinase B (Homo sapiens) (UniProt Q96GD4); experiment: Disruption of AURKB localization during anaphase in human NCI-H23 cells at 2.5 nM measured after 24 hrs by immunofluorescence staining based analysis; type: cell-based
[23] = target: Aurora kinase B (Homo sapiens) (UniProt Q96GD4); experiment: Inhibition of Aurora kinase B in human RPE-MYC cells transfected with BCL2 assessed as inhibition of histone H3 phosphorylation at Ser10 residue by immunofluorescence staining based analysis; type: cell-based
[24] = target: T1, Aurora kinase A (Homo sapiens); experiment: Inhibition of Aurora kinase A in human RPE-MYC cells transfected with BCL2 assessed as inhibition of protein autophosphorylation at Thr288 residue by immunofluorescence staining based analysis; type: cell-based

For `Nc1nccc(-c2cccnc2Oc2ccccc2)n1`, the MEC [1] was > 20 µM.
With `COC(=O)c1ccc(Oc2ncccc2-c2ccnc(N)n2)cc1` the MEC [1] was > 20 µM.
With `COc1cc(NC(C)=O)cc(Oc2ncccc2-c2ccnc(OC)c2)c1` the Activity [2] was “Active”, the Activity [3] was “Active” and the inhibition [4] was < 68%. For the same molecule, the Activity [5] was “Active”, the inhibition [6] was “Active” and the Activity [7] was “Active”. The MEC [1] was 0.03 µM.
For `CNC(=O)c1cc(Oc2ncccc2-c2ccncc2)cc(OC(F)(F)F)c1`, the MEC [1] was 0.16 µM.
With `Nc1cccc(Oc2ncccc2-c2ccnc(N)n2)c1` the MEC [1] was 20 µM.
In the case of `COc1cc(OC)cc(Oc2ncccc2-c2cccnc2)c1`, the MEC [1] was 0.91 µM.
For `COc1cc(NC(C)=O)cc(Oc2ncccc2-c2ccncc2)c1`, the inhibition [8] was “Active”, the Activity [2] was “Active” and the Activity [3] was “Active”. The Activity [5] was “Active”, the inhibition [6] was “inactive” and the Activity [7] was “Active”. The MEC [1] was 0.11 µM.
In the case of `CCN(CCCOc1ccc2c(Nc3cc(CC(=O)Nc4cccc(F)c4)[nH]n3)ncnc2c1)CCOP(=O)(O)O`, the inhibition [9] was 100%.
With `CNC(=O)c1cc(Oc2ncccc2-c2ccnc(C)c2)cc(OC(F)(F)F)c1` the Cmax [10] was 14.4 µM, the Activity [2] was “Active” and the Activity [3] was “Active”. The Activity [5] was “Active”, the inhibition [6] was “inactive” and the Activity [7] was “Active”. It also gave an MEC [1] of 0.12 µM and an AUC/dose [11] of 0.72 µM·h/mg/kg.
In the case of `CNC(=O)c1cc(OC)cc(Oc2ncccc2-c2ccncc2)c1`, the MEC [1] was 0.47 µM.
With `COc1cccc(Oc2ncccc2-c2ccnc(N)n2)c1` the MEC [1] was 1.5 µM.
For `Cc1csc(-c2nnc(Nc3ccc(Oc4ncccc4-c4ccnc(N)n4)cc3)c3ccccc23)c1` [AMG-900], the inhibition [12] was “inactive”, the Activity [13] was “Active” and the Activity [14] was “Active”. For the same molecule, the inhibition [15] was 100%, the inhibition [16] was “inactive” and the inhibition [17] was “inactive”. The Activity [18] was 7.8%, the inhibition [19] was “Active” and the inhibition [20] was “inactive”. The Activity [21] was “Active” and the Activity [22] was “Active”.
Molecule `COc1cc(OC)cc(Oc2ncccc2-c2ccncn2)c1` has an MEC [1] of 0.75 µM.
`COC(=O)c1cc(OC)cc(Oc2ncccc2-c2ccncc2)c1` gave an MEC [1] of 0.02 µM.
With `COc1cc(OC)cc(Oc2ncccc2-c2ccnc(C)c2)c1` the inhibition [23] was “inactive”, the inhibition [24] was “inactive” and the MEC [1] was 0.08 µM.
With `COC(=O)c1cccc(Oc2ncccc2-c2ccnc(N)n2)c1` the MEC [1] was 0.85 µM.
